Source: PubChem BioAssay AID256 (DTP/NCI, 2004)
Several values for one entry are separate records, joined by “and”; a condition that tells them apart may be missing. Identical values can stand only once. Toxic doses and inconclusive results are not listed.

Test system: CD2F1 mice, L1210 leukemia ip, survival T/C
Experiment: NCI In Vivo Anticancer Drug Screen. Data for tumor model L1210 Leukemia (intraperitoneal) in CD2F1 (CDF1) mice
Conditions: higher = longer survival
How it was run: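 Each value reflects a quotient of treated over vehicle control outcomes in mice with a transplanted tumor.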

[1] = endpoint: mean survival time, dose: 100.0 mg/kg/injection, schedule: Q01DX001 (ip), vehicle: saline
[2] = endpoint: mean survival time, dose: 100.0 mg/kg/injection, schedule: Q04DX003 (ip), vehicle: saline
[3] = endpoint: mean survival time, dose: 200.0 mg/kg/injection, schedule: Q01DX001 (ip), vehicle: saline
[4] = endpoint: mean survival time, dose: 200.0 mg/kg/injection, schedule: Q04DX003 (ip), vehicle: saline
[5] = endpoint: mean survival time, dose: 400.0 mg/kg/injection, schedule: Q04DX003 (ip), vehicle: saline
[6] = endpoint: mean survival time, dose: 25.0 mg/kg/injection, schedule: Q01DX009 (ip), vehicle: saline
[7] = endpoint: mean survival time, dose: 50.0 mg/kg/injection, schedule: Q01DX009 (ip), vehicle: saline
[8] = endpoint: mean survival time, dose: 100.0 mg/kg/injection, schedule: Q04DX002 (ip), vehicle: saline with Tween-80
[9] = endpoint: mean survival time, dose: 200.0 mg/kg/injection, schedule: Q04DX002 (ip), vehicle: saline with Tween-80
[10] = endpoint: mean survival time, dose: 400.0 mg/kg/injection, schedule: Q04DX002 (ip), vehicle: saline with Tween-80
[11] = endpoint: mean survival time, dose: 100.0 mg/kg/injection, schedule: Q01DX009 (ip), vehicle: saline with Tween-80
[12] = endpoint: mean survival time, dose: 200.0 mg/kg/injection, schedule: Q01DX009 (ip), vehicle: saline with Tween-80
[13] = endpoint: mean survival time, dose: 100.0 mg/kg/injection, schedule: Q01DX009 (ip), vehicle: saline
[14] = endpoint: mean survival time, dose: 200.0 mg/kg/injection, schedule: Q01DX009 (ip), vehicle: saline
[15] = endpoint: mean survival time, dose: 50.0 mg/kg/injection, schedule: Q04DX002 (ip), vehicle: saline with Tween-80

O=[N+]([O-])c1cccnc1SSc1ncccc1[N+](=O)[O-]
T/C [1]: 90 % of control
T/C [2]: 92 % of control
T/C [3]: 90 % of control
T/C [4]: 102 % of control
T/C (endpoint: mean survival time, dose: 400.0 mg/kg/injection, schedule: Q01DX001 (ip), vehicle: saline): 90 % of control
T/C [5]: 92 % of control

CCCCCC(C)(C)O
T/C (endpoint: mean survival time, dose: 100.0 mg/kg/injection, schedule: Q04DX003 (ip), vehicle: saline sonified): 94 % of control
T/C (endpoint: mean survival time, dose: 200.0 mg/kg/injection, schedule: Q04DX003 (ip), vehicle: saline sonified): 90 % of control
T/C (endpoint: mean survival time, dose: 400.0 mg/kg/injection, schedule: Q04DX003 (ip), vehicle: saline sonified): 101 % of control

COc1cc(OC)c2c[n+](C)c3c4cc(OC)c(OC)cc4ccc3c2c1
T/C (endpoint: mean survival time, dose: 12.5 mg/kg/injection, schedule: Q01DX009 (ip), vehicle: saline): 102 % of control
T/C [6]: 102 % of control
T/C [7]: 98 % of control

Cc1ccccc1NC(=O)Oc1ccc(C(C)(C)C)cc1
T/C [8]: 97 % of control
T/C [9]: 86 % of control
T/C [10]: 89 % of control

CC(C)(O)C(=O)N/N=C/c1ccc(Cl)cc1
T/C [11]: 90 % of control
T/C [12]: 90 % of control

[I][Pt+2][I].[NH-]c1ccccc1F.[NH-]c1ccccc1F
T/C (endpoint: mean survival time, dose: 3.13 mg/kg/injection, schedule: Q04DX003 (ip), vehicle: distilled water + Tween-80): 98 % of control
T/C (endpoint: mean survival time, dose: 6.25 mg/kg/injection, schedule: Q04DX003 (ip), vehicle: distilled water + Tween-80): 101 % of control
T/C (endpoint: mean survival time, dose: 12.5 mg/kg/injection, schedule: Q04DX003 (ip), vehicle: distilled water + Tween-80): 98 % of control
T/C (endpoint: mean survival time, dose: 25.0 mg/kg/injection, schedule: Q04DX003 (ip), vehicle: distilled water + Tween-80): 101 % of control
T/C (endpoint: mean survival time, dose: 50.0 mg/kg/injection, schedule: Q04DX003 (ip), vehicle: distilled water + Tween-80): 102 % of control
T/C (endpoint: mean survival time, dose: 100.0 mg/kg/injection, schedule: Q04DX003 (ip), vehicle: distilled water + Tween-80): 98 % of control
T/C (endpoint: mean survival time, dose: 200.0 mg/kg/injection, schedule: Q04DX003 (ip), vehicle: distilled water + Tween-80): 101 % of control

Cc1cccc(=N)n1CCC(=O)O
T/C [13]: 95 % of control
T/C [2]: 112 % of control
T/C [14]: 98 % of control
T/C [4]: 94 % of control
T/C (endpoint: mean survival time, dose: 400.0 mg/kg/injection, schedule: Q01DX009 (ip), vehicle: saline): 95 % of control
T/C [5]: 96 % of control

COC(=O)c1nc2ccccc2cc1C#N
T/C [1]: 97 % of control
T/C [3]: 96 % of control

CCC[S][Pb]([c]1ccccc1)([c]1ccccc1)[c]1ccccc1
T/C (endpoint: mean survival time, dose: 10.0 mg/kg/injection, schedule: Q01DX001 (ip), vehicle: Klucel (hydroxypropylcellulose) (HPC)): 98 % of control
T/C (endpoint: mean survival time, dose: 20.0 mg/kg/injection, schedule: Q01DX001 (ip), vehicle: Klucel (hydroxypropylcellulose) (HPC)): 101 % of control
T/C (endpoint: mean survival time, dose: 40.0 mg/kg/injection, schedule: Q01DX001 (ip), vehicle: Klucel (hydroxypropylcellulose) (HPC)): 104 % of control

O=C1CCCN1
T/C [7]: 91 % of control
T/C [13]: 98 % of control
T/C [14]: 89 % of control

O=C1C(Cl)=C(c2ccccc2)C(OC2(c3ccccc3)C(Cl)C(=O)C(Cl)C2c2ccccc2)(c2ccccc2)C1Cl (stereo not given)
T/C [8]: 96 % of control
T/C [9]: 101 % of control
T/C [10]: 96 % of control

C1CC2CC1C1OC21 (stereo not given)
T/C (endpoint: mean survival time, dose: 100.0 mg/kg/injection, schedule: Q04DX003 (ip), vehicle: other): 94 % of control
T/C (endpoint: mean survival time, dose: 200.0 mg/kg/injection, schedule: Q04DX003 (ip), vehicle: other): 96 % of control
T/C (endpoint: mean survival time, dose: 400.0 mg/kg/injection, schedule: Q04DX003 (ip), vehicle: other): 91 % of control

COc1cccc(CC(C)N)c1OC (stereo not given)
T/C [6]: 98 % of control
T/C [7]: 95 % of control
T/C [13]: 93 % of control
T/C (endpoint: mean survival time, dose: 100.0 mg/kg/injection, schedule: Q04DX003 (ip), vehicle: saline with Tween-80): 95 % of control

c1ccc(CN2CCC(Nc3ccccc3)(c3nnnn3C3CCCCC3)CC2)cc1
T/C (endpoint: mean survival time, dose: 100.0 mg/kg/injection, schedule: Q01DX001 (ip), vehicle: saline with Tween-80): 95 % of control
T/C (endpoint: mean survival time, dose: 200.0 mg/kg/injection, schedule: Q01DX001 (ip), vehicle: saline with Tween-80): 96 % of control
T/C (endpoint: mean survival time, dose: 400.0 mg/kg/injection, schedule: Q01DX001 (ip), vehicle: saline with Tween-80): 90 % of control

CCCCCCCCCCC(=O)OCC1OC2C(Oc3nc(=N)ccn32)C1OC(=O)CCCCCCCCCC (stereo not given)
T/C (endpoint: mean survival time, dose: 12.5 mg/kg/injection, schedule: Q01DX009 (ip), vehicle: water): 156 % of control
T/C (endpoint: mean survival time, dose: 25.0 mg/kg/injection, schedule: Q01DX009 (ip), vehicle: water): 202 % of control
T/C (endpoint: mean survival time, dose: 50.0 mg/kg/injection, schedule: Q01DX009 (ip), vehicle: water): 242 % of control
T/C (endpoint: mean survival time, dose: 100.0 mg/kg/injection, schedule: Q01DX009 (ip), vehicle: water): 118 % of control

CCCCCCCCCCCC1CCCC(C)N1 (stereo not given)
T/C [15]: 98 % of control

O=[N+]([O-])c1ccc(Sc2ccncn2)c([N+](=O)[O-])c1
T/C (endpoint: median survival time, dose: 6.25 mg/kg/injection, schedule: Q01DX009 (ip), vehicle: saline with Tween-80): 101 % of control
T/C (endpoint: median survival time, dose: 12.5 mg/kg/injection, schedule: Q01DX009 (ip), vehicle: saline with Tween-80): 102 % of control
T/C (endpoint: median survival time, dose: 25.0 mg/kg/injection, schedule: Q01DX009 (ip), vehicle: saline with Tween-80): 103 % of control
T/C (endpoint: median survival time, dose: 50.0 mg/kg/injection, schedule: Q01DX009 (ip), vehicle: saline with Tween-80): 105 % of control
T/C (endpoint: median survival time, dose: 100.0 mg/kg/injection, schedule: Q01DX009 (ip), vehicle: saline with Tween-80): 113 % of control

CCCCCCCCCCCCOP(OCC)OCCCCCCCCCCCC
T/C (endpoint: mean survival time, dose: 25.0 mg/kg/injection, schedule: Q04DX002 (ip), vehicle: saline with Tween-80): 104 % of control
T/C [15]: 101 % of control
T/C [8]: 96 % of control and 101 % of control

Cc1ccc2c(c1)C1(C)OC(C=CC1=O)O2 (stereo not given)
T/C (endpoint: median survival time, dose: 3.12 mg/kg/injection, schedule: Q01DX005 (ip), vehicle: Klucel (hydroxypropylcellulose) (HPC)): 106 % of control
T/C (endpoint: median survival time, dose: 6.25 mg/kg/injection, schedule: Q01DX005 (ip), vehicle: Klucel (hydroxypropylcellulose) (HPC)): 101 % of control
T/C (endpoint: median survival time, dose: 12.5 mg/kg/injection, schedule: Q01DX005 (ip), vehicle: Klucel (hydroxypropylcellulose) (HPC)): 105 % of control
T/C (endpoint: median survival time, dose: 25.0 mg/kg/injection, schedule: Q01DX005 (ip), vehicle: Klucel (hydroxypropylcellulose) (HPC)): 101 % of control and 105 % of control
T/C (endpoint: median survival time, dose: 50.0 mg/kg/injection, schedule: Q01DX005 (ip), vehicle: Klucel (hydroxypropylcellulose) (HPC)): 103 % of control

Cc1cn(C2OC(CO)C(O)C2Cl)c(=O)nc1N (stereo not given)
T/C (endpoint: median survival time, dose: 12.5 mg/kg/injection, schedule: Q01DX005 (ip), vehicle: saline): 101 % of control
T/C (endpoint: median survival time, dose: 25.0 mg/kg/injection, schedule: Q01DX005 (ip), vehicle: saline): 104 % of control
T/C (endpoint: median survival time, dose: 50.0 mg/kg/injection, schedule: Q01DX005 (ip), vehicle: saline): 104 % of control
T/C (endpoint: median survival time, dose: 100.0 mg/kg/injection, schedule: Q01DX005 (ip), vehicle: saline): 101 % of control
T/C (endpoint: median survival time, dose: 200.0 mg/kg/injection, schedule: Q01DX005 (ip), vehicle: saline): 96 % of control

CNC1CC2CCC1(C)C2(C)C (stereo not given)
T/C (endpoint: mean survival time, dose: 25.0 mg/kg/injection, schedule: Q04DX002 (ip), vehicle: saline): 101 % of control
T/C (endpoint: mean survival time, dose: 50.0 mg/kg/injection, schedule: Q04DX002 (ip), vehicle: saline): 112 % of control
T/C (endpoint: mean survival time, dose: 100.0 mg/kg/injection, schedule: Q04DX002 (ip), vehicle: saline): 96 % of control

CCOC(=O)Nc1ccccc1F
T/C [11]: 98 % of control
T/C [12]: 107 % of control
T/C (endpoint: mean survival time, dose: 400.0 mg/kg/injection, schedule: Q01DX009 (ip), vehicle: saline with Tween-80): 95 % of control

CC(=O)OCc1cc(=O)n(C)c2c3c4c(cc12)c(C)cc(=O)n4CO3
T/C (endpoint: mean survival time, dose: 6.25 mg/kg/injection, schedule: Q01DX009 (ip), vehicle: Klucel (hydroxypropylcellulose) (HPC)): 100 % of control
T/C (endpoint: mean survival time, dose: 12.5 mg/kg/injection, schedule: Q01DX009 (ip), vehicle: Klucel (hydroxypropylcellulose) (HPC)): 104 % of control and 112 % of control
T/C (endpoint: mean survival time, dose: 25.0 mg/kg/injection, schedule: Q01DX009 (ip), vehicle: Klucel (hydroxypropylcellulose) (HPC)): 112 % of control and 114 % of control and 109 % of control
T/C (endpoint: mean survival time, dose: 50.0 mg/kg/injection, schedule: Q01DX009 (ip), vehicle: Klucel (hydroxypropylcellulose) (HPC)): 119 % of control
T/C (endpoint: mean survival time, dose: 100.0 mg/kg/injection, schedule: Q01DX009 (ip), vehicle: Klucel (hydroxypropylcellulose) (HPC)): 90 % of control
